Reference: US5451522A, “Genes encoding and method of expressing an enzyme: phthalyl amidase” (priority 1994, dated 1995)
“Also recorded” adds a separate entry of the source.

Key:
[1] = target: T1, phthalyl amidase (Xanthobacter agilis, UniProt P0C2Y0); test: Chiral and additional substrate selectivity of phthalyl amidase; assay type: biochemical; conditions: Table 13; for Relative Activity: III = 100, 0.009 mg (0.6 units) enzyme, 2.5 μmol substrate, buffer A, 30° C.
T1 construct: 42-aa signal peptide removed
T1 sequence (P0C2Y0 2-453): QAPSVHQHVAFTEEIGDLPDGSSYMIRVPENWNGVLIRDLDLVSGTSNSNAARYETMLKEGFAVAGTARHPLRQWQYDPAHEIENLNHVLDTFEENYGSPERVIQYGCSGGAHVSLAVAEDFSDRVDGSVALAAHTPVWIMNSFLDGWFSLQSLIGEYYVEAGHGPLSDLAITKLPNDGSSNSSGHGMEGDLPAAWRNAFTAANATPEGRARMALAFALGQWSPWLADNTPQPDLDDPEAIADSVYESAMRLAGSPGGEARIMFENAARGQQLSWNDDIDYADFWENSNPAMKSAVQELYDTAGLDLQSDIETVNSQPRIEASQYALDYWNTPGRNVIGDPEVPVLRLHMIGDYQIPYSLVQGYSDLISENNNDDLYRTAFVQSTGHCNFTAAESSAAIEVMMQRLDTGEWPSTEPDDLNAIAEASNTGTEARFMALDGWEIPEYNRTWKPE
Procedure: Several additional substrates were tested in a total volume of 1 ml. […] Reactions were stopped by the addition of methanol, and phthalic acid formation was monitored by HPLC.

[2] = target: T1, phthalyl amidase; test: Substrate specificity: chemical structure requirements for enzyme activity; assay type: biochemical; conditions: for suitability as substrate (in words): Tables 10 and 11; for Relative Activity: 2.5 μmol compound, 0.3 units enzyme
Procedure: The activity of phthalyl amidase against 25 compounds was determined. The compounds were divided into beta-lactams (Table 9), phthalyl amides (Table 10), and aromatic ring substituted amides (Table 11). Each reaction mixture (1 ml total volume) contained 2.5 μmol of compound and 0.3 units of enzyme (based on the chromogenic substrate) of the preparative scale purified enzyme, in 50 mM phosphate buffer, pH 8.0. The reactions were conducted at 30° C. Samples of the reaction mixture were taken at various times, and methanol (equal volume) was added to stop the reaction. The samples were examined by HPLC to determine the extent of substrate hydrolysis. The amount of compound hydrolyzed was calculated from a standard curve of the test compound. All substrates were stable in buffer at 30° C. and pH 8.0 in the absence of enzyme for 24 hours.

[3] = tested on: Xanthobacter agilis; test: Induction of phthalyl amidase in Xanthobacter agilis cultures; assay type: cell-based; conditions: for Total units/mg protein: cell-free lysate, chromogenic substrate II; for Cell weight: 48 hours growth in Bac MI medium; for effect on wet weight cell mass (in words): Table 1 summary
Procedure: Three compounds at different concentrations were added to aerated cultures of the organism growing at 30° C. in Bac MI medium. The compounds tested were phthalate (PAA), phthalyl glycine (PAG), and PMBL. Cells of Xanthobacter agilis were grown with aeration for 24 hours. This vegetative culture was used to inoculate Bac MI medium (50 ml) containing different concentrations of the compounds to be tested. After 48 hours growth under standard conditions, cells were harvested by centrifugation and wet weight of the cells was determined. Crude cell extracts were prepared by lysozyme treatment of the cells as in Example 1. Suspensions were briefly sonicated to break up the viscous suspension. A cell-free supernatant was obtained by centrifugation of the suspension at 14,000 rpm for 15 minutes.
Enzyme activity in cell-free lysates was determined by monitoring conversion of the chromogenic substrate 4-(2'-carboxy-N-benzoyl)amino-2-carboxy-nitrobenzene (II) to 2-nitro-5-amino benzoic acid and phthalic acid, a reaction catalyzed by phthalyl amidase as shown below: [drawing 4]
The assay reaction mixture (1 ml) consisted of 0.3 μmol of the chromogenic substrate (II) and 0.001-0.5 μg of enzyme preparation in 50 mM potassium phosphate buffer, pH 8.0 (buffer A). The enzymatic reaction was conducted at 30° C. for 10 minutes and the appearance of product was monitored at 380 nm (or 430 nm). The amount of substrate hydrolyzed was calculated from a standard curve of the amine product.

[4] = target: T1, phthalyl amidase; test: Influence of effectors and organic solvents on enzyme activity; assay type: biochemical
Procedure: A typical reaction mixture consisted of 1 ml total volume and contained 0.1 mM III, 0.1 μM phthalyl amidase in 50 mM potassium phosphate buffer (pH 5.5-9.0) at 32° C. for 20 minutes. The reactions were stopped by the addition of 1 ml methanol. After removal of precipitate by centrifugation, an aliquot of the supernatant fraction (typically 30 μ) was monitored for the beta-lactam nucleus and phthalic acid by HPLC using a Zorbax C8 column (0.46×15 cm; MacMod Analytical Inc., Chadds Ford, Pa.). The two reaction products were eluted by a mobile phase constructed as continuous mixed gradients from (a) 1% ACN (acetonitrile)/0.2% TFA (trifluoroacetic acid) and (b) 80% ACN/0.2% TFA as follows: 1) 0% (b), 3 min; 2) 0-50% (b), 0.5 min; 3) 50-100% (b), 3 min; 4) 100% (b), 2.5 min; 5) 100-0% (b), 0.1 min; and 6) 0% (b), 5 min.
The effect of various agents on the enzymatic activity of phthalyl amidase was determined using standard conditions (see Example 5). All agents were tested at 1 mM final concentration unless otherwise indicated.

[5] = Table 9 beta-lactams, III = 100, 50 mM phosphate pH 8.0, 30° C.
[6] = Table 11 aromatic ring substituted amides, XVII = 100.0, pH 8.0, 30° C.

## O=C(O)c1ccccc1C(=O)Nc1ccccc1 [Compound XXXI]
[1]
  substrate selectivity (in words): twice
  Relative Activity: 200

## O=C(O)c1ccccc1C(=O)N[C@H](C(=O)O)c1ccccc1 [Compound XXX]
[1]
  substrate selectivity (in words): poor substrates
  Relative Activity: 1.3
[1]; listed as L isomer
  substrate selectivity (in words): extremely poor substrate

## CCCCCCC(C(=O)O)n1cnc(NC(=O)c2ncccc2C(=O)O)c1 (stereo not drawn) [Compound XX]
[2]
  suitability as substrate (in words): acceptable

## O=C(O)CN1C(=O)C(NC(=O)COc2ccccc2)C1CCc1ccco1 (stereo not drawn) [IV]
[2]; [5]
  Relative Activity: 0

## O=C(O)c1ccccc1C(=O)O [PAA, phthalate]
[3]; inducer addition 1 mg/ml
  Units/g cells: 3.9 Units/g cells
  Total units/mg protein: 1.4 µmol/min/mg
[3]; inducer addition 2 mg/ml
  Units/g cells: 9.3 Units/g cells
  Total units/mg protein: 4.3 µmol/min/mg
[3]; inducer addition 5 mg/ml
  Units/g cells: 5.5 Units/g cells
  Cell weight: 0.7 g/50 ml
  Total units/mg protein: 3.7 µmol/min/mg
[3]; inducer addition 10 mg/ml
  Units/g cells: 19.8 Units/g cells
  Cell weight: 0.6 g/50 ml
  Total units/mg protein: 12.0 µmol/min/mg

## O=C(O)CNC(=O)c1ccccc1C(=O)O [PAG, phthalyl glycine]
[3]
  effect on wet weight cell mass (in words): increased
[3]; inducer addition 1 mg/ml
  Units/g cells: 1.04 Units/g cells
  Total units/mg protein: 0.35 µmol/min/mg
[3]; inducer addition 5 mg/ml
  Units/g cells: 9.4 Units/g cells
  Cell weight: 0.5 g/50 ml
  Total units/mg protein: 4.4 µmol/min/mg

## O=C(O)CN1C(=O)C(NC(=O)c2ccccc2C(=O)O)C1CCc1ccco1 (stereo not drawn) [PMBL]
[3]
  effect on wet weight cell mass (in words): no effect

## O=C(O)CN1C(=O)C(NC(=O)c2ccccc2)C1CCc1ccco1 (stereo not drawn) [VI]
[2]; [5]
  Relative Activity: 0

## O=C(O)CN1C(=O)C(NC(=O)Cc2ccccc2)C1CCc1ccco1 (stereo not drawn) [V]
[2]; [5]
  Relative Activity: 0

## CCCCCCC(C(=O)O)n1cnc(NC(=O)c2ccccc2C(=O)O)c1 (stereo not drawn) [XIII]
[2]
  suitability as substrate (in words): most active compound found

## CC(C)NC(=O)c1ccccc1C(=O)O [XII]
[2]; Table 10 phthalyl amides, III = 100.0, 50 mM phosphate pH 8.0, 30° C.
  Relative Activity: 9.7

## CCCCCCC(C(=O)O)n1cnc(NC(=O)c2ccccc2C(=O)O)c1 (stereo not drawn) [XVII]
[2]; [6]
  Relative Activity: 100.0

## CCCCCCC(C(=O)O)n1cnc(NC(=O)c2ccc(C(=O)O)cc2)c1 (stereo not drawn) [XXIII]
[2]; [6]
  Relative Activity: 0
[2]
  suitability as substrate (in words): completely eliminates hydrolytic activity

## CCCCCCC(C(=O)O)n1cnc(NC(=O)c2ccccc2-c2nn[nH]n2)c1 (stereo not drawn) [XXII]
[2]; [6]
  Relative Activity: 0.2
[2]
  suitability as substrate (in words): Low levels of hydrolysis

## CCCCCCC(C(=O)O)n1cnc(NC(=O)c2cccc(C(=O)O)c2)c1 (stereo not drawn) [XXIV]
[2]; [6]
  Relative Activity: 0
[2]
  suitability as substrate (in words): completely eliminates hydrolytic activity

## CCCCCCC(C(=O)O)n1cnc(NC(=O)c2cccc(O)c2C(=O)O)c1 (stereo not drawn) [XXI]
[2]; [6]
  Relative Activity: 1.3
[2]
  suitability as substrate (in words): acceptable

## CCCCCCC(C(=O)O)n1cnc(NC(=O)c2ccccc2)c1 (stereo not drawn) [XXVIII]
[2]; [6]
  Relative Activity: 0

## CCCCCCC(C(=O)O)n1cnc(NC(=O)c2cc(O)cc(O)c2)c1 (stereo not drawn) [XXVII]
[2]; [6]
  Relative Activity: 0

## CCCCCCC(C(=O)O)n1cnc(NC(=O)c2cccc(O)c2)c1 (stereo not drawn) [XXVI]
[2]; [6]
  Relative Activity: 0

## CCCCCCC(C(=O)O)n1cnc(NC(=O)c2ccccc2O)c1 (stereo not drawn) [XXV]
[2]; [6]
  Relative Activity: 0

## O=C(Nc1ccccc1)c1ccccc1S(=O)(=O)O [XXXII]
[1]
  substrate selectivity (in words): poor substrates
  Relative Activity: 0.0

## O=C(O)c1cc[c]([Hg][OH])cc1 [p-HMB, parahydroxy mercuric benzoate]
[4]; 1 mM unless otherwise indicated, iodoacetic acid 10 mM
  effect on enzyme activity (in words): significantly reduced; also recorded: significantly inhibited
[4]; agent at 1 mM final concentration
  % of Control Activity: 65%
